Reference: ChEMBL document CHEMBL3046648, “Herbicidally Active N-(1-Arylethenyl)-2-chloroacetamides Bearing an Alkyloxyalkyl Moiety” (1991)
Values joined by “and” are separate entries in the source; they are usually repeats but may differ in a detail not shown here. Equal values may be shown once.

Experiments:
Type in all cases: functional
[1] = tested on: Schoenoplectiella juncoides; experiment: Herbicidal activity against Schoenoplectiella juncoides assessed as killing at 10 g/a at 25 degC measured after 3 weeks
[2] = Herbicidal activity against annual broad-leaf weeds assessed as killing at 10 g/a at 25 degC measured after 3 weeks
Pontederia vaginalis [3] = experiment: Herbicidal activity against Monochoria vaginalis assessed as killing at 10 g/a at 25 degC measured after 3 weeks
Cyperus difformis [4] = experiment: Herbicidal activity against Cyperus difformis assessed as killing at 10 g/a at 25 degC measured after 3 weeks
Echinochloa oryzicola [5] = experiment: Herbicidal activity against Echinochloa oryzicola assessed as killing at 10 g/a at 25 degC measured after 3 weeks
Cyperus difformis [6] = experiment: Herbicidal activity against Cyperus difformis assessed as killing at 1 g/a at 25 degC measured after 3 weeks
[7] = tested on: Schoenoplectiella juncoides; experiment: Herbicidal activity against Schoenoplectiella juncoides assessed as killing at 1 g/a at 25 degC measured after 3 weeks
[8] = Herbicidal activity against annual broad-leaf weeds assessed as killing at 1 g/a at 25 degC measured after 3 weeks
Echinochloa oryzicola [9] = experiment: Herbicidal activity against Echinochloa oryzicola assessed as killing at 1 g/a at 25 degC measured after 3 weeks
Pontederia vaginalis [10] = experiment: Herbicidal activity against Monochoria vaginalis assessed as killing at 1 g/a at 25 degC measured after 3 weeks

SMILES	Activity [1] [%]	Activity [2] [%]	Activity (Pontederia vaginalis [3]) [%]	Activity (Cyperus difformis [4]) [%]	Activity (Echinochloa oryzicola [5]) [%]	Activity (Cyperus difformis [6]) [%]	Activity [7] [%]	Activity [8]	Activity (Echinochloa oryzicola [9]) [%]	Activity (Pontederia vaginalis [10]) [%]
CCOC(=O)C(CC)N(C(=O)CCl)C(=C(C)C)c1ccccc1 (centres undefined)	60	80	40	40	80	–	–	–	–	–
COCCN(C(=O)CCl)C(=C(C)C)c1ccc(Br)cc1	100	100	100	100	100	100	80	80%	100	100
CC=C(c1ccccc1)N(CCOC)C(=O)CCl	100	100	100	100	100	60	0	0%	40	0
C=C(c1ccccc1)N(CCOC)C(=O)CCl	60	80	40	80	100	–	–	–	–	–
CC(C)=C(c1ccccc1)N(CCCOC(C)C)C(=O)CCl	100	100	100	100	100	–	–	–	–	–
COCCN(C(=O)CCl)C(=C(C)C)c1ccc(C)o1	100	100	100	100	100	–	–	–	–	–
CC(C)=C(c1ccccc1)N(CCOC/C=C/c1ccccc1)C(=O)CCl	40	0	0	0	20	–	–	–	–	–
COC(CN(C(=O)CCl)C(=C(C)C)c1ccccc1)OC	100	100	100	100	100	100	0	80% and 100%	40	0
C=CCOCCN(C(=O)CCl)C(=C(C)C)c1ccccc1	100	100	100	100	100	100	100	100%	100	100
CCCCOCN(C(=O)CCl)c1c(CC)cccc1CC [BUTACHLOR]	100	100	100	100	100	–	–	–	–	–
CCC=C(c1ccccc1)N(CCOC)C(=O)CCl	100	80	100	100	100	80	0	0%	60	0
C/C=C/COCCN(C(=O)CCl)C(=C(C)C)c1ccccc1	100	80	100	100	100	–	–	–	–	–
CCOCCCN(C(=O)CCl)C(=C(C)C)c1ccccc1	100	100	100	100	100	60	40	40%	80	0
COCCN(C(=O)CCl)C(=C(C)C)c1ccc(C)cc1	100	100	100	100	100	100	80	80%	80	60
COCCN(C(=O)CCl)C(=C(C)C)c1ccc(Br)s1	100	100	100	100	100	80	60	80%	100	60
COCCN(C(=O)CCl)C(=C(C)C)c1cccs1	100	100	100	100	100	100	100	0%	100	100
COCCN(C(=O)CCl)C(=C(C)C)c1ccc(OC)c(OC)c1	100	100	100	100	100	80	60	–	80	60
COCCN(C(=O)CCl)C(=C(C)C)c1cc(C(C)C)ccc1C	100	100	100	100	100	0	0	–	60	0

SMILES	Activity [1] [%]	Activity [2] [%]	Activity (Pontederia vaginalis [3]) [%]	Activity (Cyperus difformis [4]) [%]	Activity (Echinochloa oryzicola [5]) [%]	Activity (Cyperus difformis [6]) [%]	Activity [7] [%]	Activity [8]	Activity (Echinochloa oryzicola [9]) [%]	Activity (Pontederia vaginalis [10]) [%]
CCOC(=O)CN(C(=O)CCl)C(=C(C)C)c1ccccc1	40	80	40	80	100	–	–	–	–	–
CCCCCOCCN(C(=O)CCl)C(=C(C)C)c1ccccc1	60	80	0	80	80	–	–	–	–	–
CCC(CC)=C(c1ccccc1)N(CCOC)C(=O)CCl	100	80	100	100	100	40	0	0%	80	0
COCCN(C(=O)CCl)C(=C(C)C)c1cccc2ccccc12	60	60	60	80	100	–	–	–	–	–
CCOC(CN(C(=O)CCl)C(=C(C)C)c1ccccc1)OCC	100	100	100	100	100	40	0	–	0	0
COCCN(C(=O)CCl)C(=C(C)C)c1ccccc1Cl	100	100	100	100	100	100	80	0%	80	0
COCCN(C(=O)CCl)C(=C1CCCCC1)c1ccccc1	100	80	100	100	100	0	0	60%	20	0
CC(C)=C(c1ccccc1)N(CCOCC(F)(F)F)C(=O)CCl	80	60	60	100	100	–	–	–	–	–
CCOC(=O)C(C)N(C(=O)CCl)C(=C(C)C)c1ccccc1 (centres undefined)	100	100	100	100	100	–	–	–	–	–
CCCOCCN(C(=O)CCl)C(=C(C)C)c1ccccc1	100	100	100	100	100	100	80	–	100	100
CCCCC=C(c1ccccc1)N(CCOC)C(=O)CCl	100	80	100	80	80	–	–	–	–	–
COC(=O)C(C)N(C(=O)CCl)C(=C(C)C)c1ccccc1 (centres undefined)	100	80	80	80	100	–	–	–	–	–
COC=C(c1ccccc1)N(CCOC)C(=O)CCl	40	0	0	60	100	–	–	–	–	–
COCCN(C(=O)CCl)C(=C(C)C)c1cccc(Oc2ccc(Cl)cc2)c1	80	100	100	100	100	–	–	–	–	–
COCCN(C(=O)CCl)C(=C(C)C)c1ccccc1OC	100	–	100	80	100	0	0	0%	0	0
COCCN(C(=O)CCl)C(=C(C)C)c1ccco1	100	100	100	100	100	20	40	–	100	0
CSCCN(C(=O)CCl)C(=C(C)C)c1ccccc1	20	0	0	0	60	–	–	–	–	–
